Measurements from patent publication US9636323B2, “Method of treating cancer that overexpresses TopBP1” (Baylor College of Medicine, priority 2014, dated 2017).

Columns and labels:
[1] = tested on: RPMI 8226 myeloma cell line; experiment: MTS assay, RPMI 8226; format: cell-based, human; conditions: Calcein AM 2.5 μM, 12 h, mutp53(E285K)
Description: (§1) Then 50 μl of MTS reagent (CellTiter 96® AQueous One Solution Cell Proliferation Assay, Promega) was added to each well, covered from light and incubated for 1 h at 37.0 incubator to develop purple color. The samples were measured at 490 nm in a plate reader (BioTek Synergy HT) against a blank 48-well plate. Each assay was done in triplicate.

[2] = tested on: MDA-MB468 cells; experiment: Caspase 3/7 activity assay, MDA-MB468; format: cell-based, human
Description: (§2) The apoptosis was measured by Caspase-Glo® 3/7 assay (Promega) following the manufacturer's protocol. The cells were plated in 6-well tissue culture dish (10^4 cells/well) (BD Falcon) in respective media. […] The blank reactions were prepared per direction. Equal volume of Caspase-Glo® 3/7 reagents were applied to each well. A luminometer (Sirius) was used to quantitate luminescence.
(§3) To prepare TopBP1 knockdown stable cell line, MDA-MB468 cells were infected with lentivirus expressing TopBP1 shRNA (Liu et al. 2011) as well as scramble shRNA, separately. The infected cells were grown for 48 h followed by selection with puromycin (2 μg/ml). After selection, the knockdown was confirmed by Western blotting before further experiments. Two different pLKO-shTopBP1 (#1 and #2) constructs (Open Biosystems, RHS4533-NM_007027) were used to deplete TopBP1 in MDA-MB468 cells. Additional two pSuper-shTopBP1 constructs (Liu et al. 2004) were used to knock down TopBP1 in HEK293 cells. Two pSuper-shE2F1 constructs were used to deplete E2F1: shE2F1#1 (described previously (Liu et al. 2004)), and shE2F1#2 (target sequence 5′-[…]-3′). The target sequence for pSuperior-shE2F1 is the same as pSuper-shE2F1#1. To deplete p63, shp63alpha pLKO.1-puro (from Addgene, 19120) was used. TP73 MISSION shRNA (shp73 pLKO.1-puro) was purchased from Sigma (TRCN00002722587).

[3] = target: T1, TopBP1/E2F1 interaction (Homo sapiens, UniProt Q92547); experiment: Co-immunoprecipitation in MDA-MB468 cells, TopBP1/E2F1; format: cell-based; conditions: 2.5 μM, 5 h
T1 construct: endogenous in cells; host or cells: MDA-MB468
T1 sequence (Q92547 whole entry): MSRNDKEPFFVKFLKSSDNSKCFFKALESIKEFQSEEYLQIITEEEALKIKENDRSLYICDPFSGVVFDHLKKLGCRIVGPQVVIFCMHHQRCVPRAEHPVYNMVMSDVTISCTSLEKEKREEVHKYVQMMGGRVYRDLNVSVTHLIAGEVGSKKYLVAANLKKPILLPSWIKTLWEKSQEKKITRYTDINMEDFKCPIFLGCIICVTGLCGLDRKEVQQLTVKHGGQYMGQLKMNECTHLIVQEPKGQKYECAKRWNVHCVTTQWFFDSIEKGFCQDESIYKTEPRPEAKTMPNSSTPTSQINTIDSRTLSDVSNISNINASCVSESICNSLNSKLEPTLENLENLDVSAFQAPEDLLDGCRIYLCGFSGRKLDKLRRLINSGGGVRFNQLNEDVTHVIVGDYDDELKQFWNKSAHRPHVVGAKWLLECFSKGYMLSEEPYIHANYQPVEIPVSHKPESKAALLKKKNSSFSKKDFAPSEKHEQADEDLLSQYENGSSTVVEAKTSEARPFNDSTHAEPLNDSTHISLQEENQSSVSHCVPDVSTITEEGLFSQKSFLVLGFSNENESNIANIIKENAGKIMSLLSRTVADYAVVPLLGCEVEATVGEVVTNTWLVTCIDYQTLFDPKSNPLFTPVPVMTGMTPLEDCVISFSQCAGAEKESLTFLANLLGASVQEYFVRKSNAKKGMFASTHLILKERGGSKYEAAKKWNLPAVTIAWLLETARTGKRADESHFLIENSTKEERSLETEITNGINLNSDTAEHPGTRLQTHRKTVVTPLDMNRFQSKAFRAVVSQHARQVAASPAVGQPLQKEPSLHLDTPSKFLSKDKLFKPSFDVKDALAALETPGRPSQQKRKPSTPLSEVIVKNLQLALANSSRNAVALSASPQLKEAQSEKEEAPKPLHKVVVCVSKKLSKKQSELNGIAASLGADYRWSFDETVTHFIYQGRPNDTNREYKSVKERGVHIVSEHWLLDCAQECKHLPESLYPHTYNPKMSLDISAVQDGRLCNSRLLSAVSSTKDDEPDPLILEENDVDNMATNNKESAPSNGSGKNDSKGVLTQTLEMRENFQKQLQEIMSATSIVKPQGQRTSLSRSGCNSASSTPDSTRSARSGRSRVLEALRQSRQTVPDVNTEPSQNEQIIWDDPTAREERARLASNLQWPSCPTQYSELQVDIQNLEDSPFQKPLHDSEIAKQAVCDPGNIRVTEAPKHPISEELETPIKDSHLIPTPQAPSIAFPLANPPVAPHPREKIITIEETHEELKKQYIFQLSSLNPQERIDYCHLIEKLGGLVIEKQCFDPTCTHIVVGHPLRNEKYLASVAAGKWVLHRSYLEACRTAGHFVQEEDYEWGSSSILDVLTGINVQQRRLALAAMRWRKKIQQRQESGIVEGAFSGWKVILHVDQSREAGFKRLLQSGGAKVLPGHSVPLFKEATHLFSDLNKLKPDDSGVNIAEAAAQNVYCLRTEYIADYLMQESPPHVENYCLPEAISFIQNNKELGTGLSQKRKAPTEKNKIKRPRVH
Description: MDA-MB468 cells were lysed with TNN buffer (Liu et al. 2003). An aliquot of cell lysates was lysed with SDS lysis buffer and the rest of cell lysates were incubated with appropriate antibodies or beads at 4° C. for 3-12 h. Anti-FLAG beads (Sigma) were washed three times with TNN buffer. Immunoprecipitates were fractionated by SDS-PAGE and electro-transferred to Immobilon-P membrane (Millipore). Equal amount of protein loading was validated with Ponceau-S staining. The specific signals were detected by incubating with appropriate antibody. All primary antibodies were used at 1:1000 dilution and horseradish peroxidase (HRP)-conjugated secondary antibodies were used at 1:5000 dilution for immunoblotting. E2F1 (C-20 and KH-95), p53 (FL393), p63 (4A4 and H-129), p73 (H-79), p21 (C-19), Bax (N-20), GST (B-14), c-Myc (A14), Miz1 (H-190), Chk1 (G4), Actin (C-2) and GAPDH (6C5) antibodies were purchased from Santa Cruz. TopBP1 (mouse monoclonal) and Aid antibodies were purchased from BD Transduction Laboratories. TopBP1 (BL893, Rabbit polyclonal) antibody was purchased from Bethyl. Mouse monoclonal anti-phospho-γH2AX was purchased from Millipore. Phospho-Chk1 (Ser345) antibody was purchased from Cell signaling. FLAG (F7425) antibody was purchased from Sigma. Mouse monoclonal anti-p73 (IMG-246) was purchased from IMGENEX.

[4] = tested on: BT549 cells; experiment: Trypan blue exclusion viability assay, BT549; format: cell-based, human
Description: as §3

[5] = tested on: NCI-H460; conditions: NCI-DTP database; cited from earlier work
[6] = tested on: NCI-H23; conditions: NCI-DTP database; cited from earlier work
[7] = tested on: NCI-H520 lung cancer cells; experiment: Caspase 3/7 activation assay, NCI-H520; format: cell-based; conditions: 2.5 or 5 μM, 16 hours
Description: as §2

[8] = tested on: BT549 xenografts; experiment: BT549 xenograft formation; format: in vivo, nude mice
Description: Twenty nude mice were injected s.c. with BT549 cells. […] Six out of eight DMSO-treated mice developed xenografts later.

[9] = tested on: mutp53(R273H) gain of function; experiment: p73 activity reporter (Bax promoter-luciferase) assay in p53-null H1299 cells expressing p73α and mutp53(R273H); format: cell-based, human
Description: E2F1 activity reporter assay using a p14^ARF promoter-luciferase plasmid was performed as described (Liu et al. 2003). p53 activity reporter assay was performed by a p21^Cip promoter-luciferase plasmid (Liu et al. 2009). p73 activity reporter assay was performed using a pGL3-Bax promoter-luciferase plasmid (Liu et al. 2011). pRL-TK (Renilla luciferase, Promega) was used in all experiments for controlling transfection efficiency. The firefly and Renilla luciferase activities were measured by Dual-Luciferase Reporter System (Promega), and the firefly luciferase activities were normalized against the Renilla activity. All assays were performed in triplicate.

[10] = tested on: mice (intestinal tissues); experiment: Tolerability and acute toxicity in proliferating tissues after i.p. injection; format: in vivo
[11] = tested on: T47D (PIK3CA mutant H1047R); conditions: NCI-60 cell lines database; cited from earlier work
[12] = tested on: MCF7 cells; experiment: MTS assay, MCF7; format: cell-based, human; conditions: increasing concentrations, 5 h, versus MCF10A
Description: as §1

[13] = target: T1, TopBP1/E2F1 interaction; experiment: Co-immunoprecipitation in BT549 cells, TopBP1/E2F1; format: cell-based; conditions: 2.5 μM, 3 h

Structure (SMILES): CC(=O)OCOC(=O)CN(CC(=O)OCOC(C)=O)Cc1cc2c(cc1OC(C)=O)Oc1cc(OC(C)=O)c(CN(CC(=O)OCOC(C)=O)CC(=O)OCOC(C)=O)cc1C21OC(=O)c2ccccc21 [Calcein AM, Calcein AM (acetoxymethyl ester)]
- doxorubicin sensitivity (MTS) [1]: sensitized cells to doxorubicin
- apoptosis (caspase 3/7 activity) ([2]; 2.5 μM overnight): induced apoptosis
- apoptosis (caspase 3/7 activity) ([2]; 0.1 and 0.5 μM, 16 h): not
- apoptosis (caspase 3/7 activity) ([2]; 2.5 and 5 μM, 16 h): induced
- effect of Calcein AM on apoptosis (caspase 3/7) ([2]; TopBP1-depleted cells, 2.5 μM overnight): mitigated the effect
- TopBP1/E2F1 interaction at physiological levels [3]: inhibited
- Calcein AM response, viability assay ([4]; E2F1 depleted by two shRNA constructs, 2.5 μM, 20 h): attenuated
- living cells compared with scrambled shRNA ([4]; p63- and p73-depleted cells, 2 μM, 15 h): more living cells
- GI50 [5]: < 1000 nM
- GI50 [6]: < 1000 nM
- apoptosis (caspase 3/7 activation) [7]: induced apoptosis
- mice that developed tumors ([8]; 20 mg/kg i.p. every three days for three doses): none of the eight
- mice that developed tumors ([8]; 40 mg/kg i.p. every three days for three doses): none of the four
- inhibition of p73 transcriptional activity by mutp53(R273H) [9]: blocked
- apparent toxicity in injected mice ([10]; 40 mg/kg): did not manifest any apparent toxicity
- Ki-67 staining in intestinal epithelium ([10]; 40 mg/kg, 48 h after injection): did not decrease Ki-67 staining
- apoptosis in intestinal epithelium ([10]; 40 mg/kg, 48 h after injection): nor did it induce apoptosis
- tolerability of i.p. injections ([10]; throughout the course of treatment): appeared to tolerate
- GI50 [11]: 1400 nM
- proliferation (MTS) [12]: preferentially inhibited the proliferation
- interaction between TopBP1 and E2F1 [13]: inhibited
